# Laboratory results as given in patent publication EP0796866A1, “Antithrombotic diamides” (ELI LILLY AND COMPANY, priority 1996, dated 1997).
# Where a name gives a salt, the structure may show the parent alone.
# How the values were obtained:
# Assay type in all cases: biochemical
# [1] = tested on: human or animal plasma; test: activated partial thromboplastin time (APTT) coagulation assay in plasma; conditions: concentration required to double the clotting time, linear extrapolation; Actin reagent, CaCl2
# Experimental: (§1) Dog plasma and rat plasma are obtained from conscious mixed-breed hounds (either sex, hazelton-LRE, Kalamazoo, Michigan, U.S.A.) or from anesthetized male Sprague-Dawley rats (Harlan Sprague-Dawley, Inc., Indianapolis, Indiana, U.S.A.) by venipuncture into 3.8 percent citrate. Fibrinogen is prepared from in-date ACD human blood as the fraction I-2 according to previous procedures and specifications. Smith, Biochem. J., 185, 1-11 (1980); and Smith, et al., Biochemistry, 11, 2958-2967 (1972). Human fibrinogen is also purchased as 98 percent pure/plasmin free from American Diagnostica, Greenwich, Connecticut. Coagulation reagents ACTIN, Thromboplastin, and Human plasma are from Baxter Healthcare Corp., Dade Division, Miami, Florida. […]
# (§2) Coagulation assay procedures are as previously described. […] The thrombin time (TT) is measured by adding 0.05 ml saline and 0.05 ml thrombin (10 NIH units/ml) to 0.05 ml test plasma. The activated partial thromboplastin time (APTT) is measured by incubation of 0.05 ml test plasma with 0.05 ml Actin reagent for 120 seconds followed by 0.05 ml CaCl2 (0.02 M). The prothrombin time (PT) is measured by adding 0.05 ml saline and 0.05 ml Thromboplastin-C reagent to 0.05 ml test plasma. […] Each of the particularly preferred examples of the invention listed above was determined to have a TT value of less than 100 ng/mL. […]
# [2] = tested on: human or animal plasma; test: prothrombin time (PT) coagulation assay in plasma; conditions: concentration required to double the clotting time, linear extrapolation; Thromboplastin-C reagent
# Experimental: as §1, §2
# [3] = tested on: human or animal plasma; test: thrombin time (TT) coagulation assay in plasma; conditions: concentration required to double the clotting time, linear extrapolation; thrombin 10 NIH units/ml
# Experimental: as §1, §2
# [4] = molecular target: T1, human thrombin (Homo sapiens, UniProt P00734); test: inhibition of the amidase activity of thrombin (chromogenic substrate), Kass; conditions: hypothetical equilibrium (association) constant thrombin + test compound; mean over a range of concentrations; pH 7.4
# T1 construct: purified human thrombin; purchased Enzyme Research Laboratories, South Bend, Indiana
# Experimental: The assay is carried out by mixing 50 µl buffer (0.03M Tris, 0.15M NaCl, pH 7.4) with 25 µl of human thrombin solution (purified human thrombin, Enzyme Research Laboratories, South Bend, Indiana, at 8 NIH units/ml) and 25 µl of test compound in a solvent (50% aqueous methanol (v:v)). Then 150 µl of an aqueous solution of the chromogenic substate (at 0.25 mg/ml) are added and the rates of hydrolysis of the substrate are measured by monitoring the reactions at 405 nm for the release of p-nitroaniline. Standard curves are constructed by plotting free thrombin concentration against hydrolysis rate. The hydrolysis rates observed with test compounds are then converted to "free thrombin" values in the respective assays by use of the standard curves. The bound thrombin (bound to test compound) is calculated by subtracting the amount of free thrombin observed in each assay from the known initial amount of thrombin used in the assay. The amount of free inhibitor in each assay is calculated by subtracting the number of moles of bound thrombin from the number of moles of added inhibitor (test compound). […]
# Kass is calculated for a range of concentrations of test compounds and the mean value reported in units of liter per mole. […] For example, each of the particularly preferred examples of the invention listed above was determined to have a Kass of at least 5 X 10^6 L/mole.
SMILES,APTT [1] [ng/mL],PT [2] [ng/mL],TT [3] [ng/mL],Kd [4] [nM]
"O=C(O)CN[C@H](CC1CCCCC1)C(=O)N1CCC[C@H]1C(=O)NC/C=C/c1c[nH]cn1 [Example 7, N-(carboxymethyl)-D-cyclohexylalanyl-N-[(E)-3-(imidazol-4-yl)prop-2-enyl]-L-prolinamide hydrochloride]",280,430,30,17.5
"O=C(O)CN[C@H](CC1CCCCC1)C(=O)N1CCC[C@H]1C(=O)NCCCc1c[nH]cn1 [Example 8, N-(carboxymethyl)-D-cyclohexylalanyl-N-[3-(imidazol-4-yl)propyl]-L-prolinamide hydrochloride]",170,380,20,12.5
